Results taken from the supplement of paper PMC9663587.

Columns and labels:
LEE011/Ribociclib = compound: CN(C)C(=O)c1cc2cnc(Nc3ccc(N4CCNCC4)cn3)nc2n1C1CCCC1 [LEE011/Ribociclib]; assay: increase in dead-cell fraction, 72 h; higher = more death;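 also: breast cancer cell lines in 384-well plates, stained with Hoechst plus LIVE/DEAD far red dye and imaged, cells above an LDR intensity threshold counted dead, Hoechst-negative corpses included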
THZ531 = compound: CN(C)C/C=C/C(=O)Nc1ccc(C(=O)N2CCC[C@@H](Nc3ncc(Cl)c(-c4c[nH]c5ccccc45)n3)C2)cc1 [THZ531]; assay: as above
THZ1 = compound: CN(C)C/C=C/C(=O)Nc1ccc(C(=O)Nc2cccc(Nc3ncc(Cl)c(-c4c[nH]c5ccccc45)n3)c2)cc1 [THZ1]; assay: as above
Flavopiridol [1] = compound: T1, CN1CC[C@H](c2c(O)cc(O)c3c(=O)cc(-c4ccccc4Cl)oc23)[C@H](O)C1 [Flavopiridol]; assay: as above
Neratinib/HKI272 = compound: CCOc1cc2ncc(C#N)c(Nc3ccc(OCc4ccccn4)c(Cl)c3)c2cc1NC(=O)/C=C/CN(C)C [Neratinib/HKI272]; assay: GR value, 72 h; higher = faster growth (1 = untreated, <0 = killing);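 also: breast cancer and non-malignant breast epithelial lines, nine half-log doses, viable cells counted by Hoechst and LIVE/DEAD dye imaging versus time-zero plates and DMSO controls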
Flavopiridol [2] = compound: T1, Flavopiridol; assay: as above

In the case of SUM149, the “increase in dead-cell fraction” value (LEE011/Ribociclib; 0.001 µM) is reported as -0.0066, the “increase in dead-cell fraction” value (LEE011/Ribociclib; 0.003162 µM) is reported as -0.0033 and the “increase in dead-cell fraction” value (LEE011/Ribociclib; 0.01 µM) is reported as 0.001. For the same cell line, the “increase in dead-cell fraction” value (LEE011/Ribociclib; 0.03162 µM) was -0.0061, the “increase in dead-cell fraction” value (LEE011/Ribociclib; 0.1 µM) was -0.0037 and the “increase in dead-cell fraction” value (LEE011/Ribociclib; 0.3162 µM) was 0.0068. For the same cell line, the “increase in dead-cell fraction” value (LEE011/Ribociclib; 1 µM) was 0.0043, the “increase in dead-cell fraction” value (LEE011/Ribociclib; 3.162 µM) was 0.0014 and the “increase in dead-cell fraction” value (LEE011/Ribociclib; 10 µM) was 0.0135. The “increase in dead-cell fraction” value (THZ531; 0.0001 µM) was 0.0045, the “increase in dead-cell fraction” value (THZ531; 0.0003162 µM) was -0.0031 and the “increase in dead-cell fraction” value (THZ531; 0.001 µM) was 0. The “increase in dead-cell fraction” value (THZ531; 0.003162 µM) was -0.0086, the “increase in dead-cell fraction” value (THZ531; 0.01 µM) was -0.0054 and the “increase in dead-cell fraction” value (THZ531; 0.03162 µM) was 0.0002. The “increase in dead-cell fraction” value (THZ531; 0.1 µM) was 0.0001, the “increase in dead-cell fraction” value (THZ531; 0.3162 µM) was 0.0691 and the “increase in dead-cell fraction” value (THZ531; 1 µM) was 0.58. For the same cell line, the “increase in dead-cell fraction” value (THZ1; 0.0001 µM) was -0.0005, the “increase in dead-cell fraction” value (THZ1; 0.0003162 µM) was -0.0052 and the “increase in dead-cell fraction” value (THZ1; 0.001 µM) was -0.0029. The “increase in dead-cell fraction” value (THZ1; 0.003162 µM) was 0.0113, the “increase in dead-cell fraction” value (THZ1; 0.01 µM) was -0.0015 and the “increase in dead-cell fraction” value (THZ1; 0.03162 µM) was 0.0274. For the same cell line, the “increase in dead-cell fraction” value (THZ1; 0.1 µM) was 0.083, the “increase in dead-cell fraction” value (THZ1; 0.3162 µM) was 0.445 and the “increase in dead-cell fraction” value (THZ1; 1 µM) was 0.589. The “increase in dead-cell fraction” value (Flavopiridol [1]; 0.0001 µM) was 0.0065, the “increase in dead-cell fraction” value (Flavopiridol [1]; 0.0003162 µM) was -0.0003 and the “increase in dead-cell fraction” value (Flavopiridol [1]; 0.001 µM) was 0.0038. For the same cell line, the “increase in dead-cell fraction” value (Flavopiridol [1]; 0.003162 µM) was -0.0072, the “increase in dead-cell fraction” value (Flavopiridol [1]; 0.01 µM) was -0.0008 and the “increase in dead-cell fraction” value (Flavopiridol [1]; 0.03162 µM) was 0.0051. The “increase in dead-cell fraction” value (Flavopiridol [1]; 0.1 µM) was 0.0079, the “increase in dead-cell fraction” value (Flavopiridol [1]; 0.3162 µM) was 0.114 and the “increase in dead-cell fraction” value (Flavopiridol [1]; 1 µM) was 0.787. The GR value (Neratinib/HKI272; 0.0003162 µM) was 1.04 GR, the GR value (Neratinib/HKI272; 0.001 µM) was 1.01 GR and the GR value (Neratinib/HKI272; 0.003162 µM) was 1.02 GR. It also gave a GR value (Neratinib/HKI272; 0.01 µM) of 0.895 GR, a GR value (Neratinib/HKI272; 0.03162 µM) of 0.663 GR and a GR value (Neratinib/HKI272; 0.1 µM) of 0.408 GR. The GR value (Neratinib/HKI272; 0.3162 µM) was 0.251 GR, the GR value (Neratinib/HKI272; 1 µM) was 0.199 GR and the GR value (Neratinib/HKI272; 3.162 µM) was 0.144 GR. It also gave a GR value (Flavopiridol [2]; 0.0001 µM) of 0.972 GR, a GR value (Flavopiridol [2]; 0.0003162 µM) of 1.01 GR and a GR value (Flavopiridol [2]; 0.001 µM) of 0.951 GR. For the same cell line, the GR value (Flavopiridol [2]; 0.003162 µM) was 0.944 GR, the GR value (Flavopiridol [2]; 0.01 µM) was 0.862 GR and the GR value (Flavopiridol [2]; 0.03162 µM) was 0.964 GR. For the same cell line, the GR value (Flavopiridol [2]; 0.1 µM) was 0.788 GR, the GR value (Flavopiridol [2]; 0.3162 µM) was 0.177 GR and the GR value (Flavopiridol [2]; 1 µM) was -0.591 GR.
